According to patent US8309685B2 (Celgene Avilomics Research, Inc., priority 2007, dated 2012):
Where two headings read alike, the source gives them in different places.

Legend:
[1] = target: T1, A156T mutant of the HCV NS3/4A 1b protease enzyme (Hepatitis C virus genotype 1b, UniProt P26663, A1182T); test: HCV Protease FRET Assay (IC50_APP), A156T mutant; format: biochemical; conditions: apparent IC50, A156T mutant; read-out: IC50_APP, HCV A156T
T1 construct: 10× stocks of NS3/4A protease enzyme from Bioenza (Mountain View, Calif.); purchased Bioenza (Mountain View, Calif.)

[2] = target: T2, wild type HCV NS3/4A 1b protease enzyme (Hepatitis C virus genotype 1b, UniProt P26663); test: HCV Protease FRET Assay (IC50_APP), wild type; format: biochemical
T2 construct: 10× stocks of NS3/4A protease enzyme from Bioenza (Mountain View, Calif.); purchased Bioenza (Mountain View, Calif.)

[3] = target: T3, HCV NS3/4A wild type (genotype 1b) (Hepatitis C virus genotype 1b, UniProt P26663); test: Mass spectrometric analysis (MALDI-TOF) of covalent modification, HCV wild type; format: binding; conditions: 10-fold excess of compound to protein, 1 hr
T3 construct: mass spectroscopic analysis of HCV NS3/4A wild-type protease domain; purchased Bioenza Calif
Description: Mass spectrometric analysis of HCV wild type or HCV variant C159S in the presence of test compound was performed. 100 pmols of HCV wild type (Bioenza Calif.) was incubated with compound for 1 hr and 3 hrs at 10-fold access of […] to protein. 1 ul aliquots of the samples (total volume of 4.24 ul) were diluted with 10 ul of 0.1% TFA prior to micro C4 ZipTipping directly onto the MALDI target using Sinapinic acid as the desorption matrix (10 mg/ml in 01% TFA:Acetonitrile 50:50). Analyses were performed on a Shimadzu Biotech Axima TOF^2 (Shimadzu Instruments) matrix-assisted-laser desorption/ionization Time-of-Flight (MALDI-TOF) mass spectrometer. The same procedure was carried out on 100 pmols of HCV C159S mutant of HCV protease for 3 hrs at 10-fold excess of (I-3) to protein.
As depicted in FIGS. 2, 3, 4, and 5, mass spectrometric analysis of HCV wild type or HCV mutants in the presence of test compound (I-3) was performed. […] 1 ul aliquots of the samples were diluted with 10 ul of 0.1% TFA prior to micro C4 ZipTipping directly onto the MALDI target using Sinapinic acid as the desorption matrix (10 mg/ml in 0.1% TFA:Acetonitrile 50:50).
Mass spectrometric analysis of HCV wild type (genotype 1b) in the presence of test compounds I-73 and I-75 was performed using the following protocol: HCV NS3/4A wild type (wt) was incubated for 1 hr at a 10× fold access of test compound to protein. 2 ul aliquots of the samples were diluted with 10 ul of 0.1% TFA prior to micro C4 ZipTipping directly onto the MALDI target using Sinapinic acid as the desorption matrix (10 mg/ml in 0.1% TFA:Acetonitrile 50:50). For intact protein mass measurement the instrument was set in Linear mode using a pulsed extraction setting of 24,500 and apomyoglobin as the standard to calibrate the instrument.
Mass spectrometric analysis of HCV NS3/4A genotypes 1a, 1b, 2a, and 3a in the presence of test compound I-96 was performed using the following protocol: HCV NS3/4A was incubated for 3 hr at a 10× fold access of test compound to protein. […]

[4] = test system: HCV RNA replicon in cell line ET (luc-ubi-neo/ET), human Huh7 hepatoma; test: Method A: HCV RNA replicon antiviral assay (luciferase, ET cell line); format: cell-based, Hepatitis C virus; conditions: Hepatitis C virus, Huh-7, assay described in Example 22
In short: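 ET replicon cells (Huh7 carrying luciferase-reporter HCV replicon) plated at 5×10^3 cells/well and exposed 72 hr to six 3-fold drug concentrations in DMEM/5% FBS. Replicon luciferase gave EC50/EC90; CytoTox-1 cell counts gave IC50 (viability); […]. Interferon alpha-2b served as positive control.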

[5] = target: T4, D168A mutant of the HCV NS3/4A 1b protease enzyme (Hepatitis C virus genotype 1b, UniProt P26663, D1194A); test: HCV Protease FRET Assay (IC50_APP), D168A mutant; format: biochemical; conditions: apparent IC50, D168A mutant; read-out: IC50_APP, HCV D168A
T4 construct: 10× stocks of NS3/4A protease enzyme from Bioenza (Mountain View, Calif.); purchased Bioenza (Mountain View, Calif.)

[6] = test system: HCV RNA replicon in cell line ET (luc-ubi-neo/ET), human Huh7 hepatoma; test: Luciferase Assay (Example 35), replicon-derived luciferase activity; format: cell-based; conditions: Hepatitis C virus, Huh-7; assay described in Example 35
Description: The compounds were assayed to evaluate the antiviral activity and cytotoxicity of compounds using replicon-derived luciferase activity. This assay used the cell line ET (luc-ubi-neo/ET), which is a human Huh7 hepatoma cell line that contains an HCV RNA replicon with a stable luciferase (Luc) reporter and cell culture-adaptive mutations. The ET cell line was grown in a 5% CO2 incubator at 37° C. in Dulbecco's modified essential media (DMEM) supplemented with 2 mM L-glutamine, nonessential amino acids, 100 U of penicillin/ml, 100 μg of streptomycin/mL, and 10% fetal bovine serum. G418 (Geneticin; Invitrogen) was added at a final concentration of 400 ug//mL.
All cell culture reagents were obtained from Invitrogen (Carlsbad). Cells were trypsinized (1% trypsin:EDTA) and plated out at 5×10^3 cells/well in white 96-well assay plates (Costar) dedicated to cell number (cytotoxicity) or antiviral activity assessments. Test compounds were added at six 3-fold concentrations each and the assay was run in DMEM, 5% FBS, 1% pen-strep, 1% glutamine, 1% non essential amino acid. Human interferon alpha-2b (PBL Biolabs, New Brunswick, N.J.) was included in each run as a positive control compound. Cells were processed 72 hr post test compound addition when the cells were still subconfluent. Antiviral activity was measured by analyzing replicon-derived luciferase activity using the Steady-Glo Luciferase Assay System (Promega, Madison, Wis.) according to manufacturer's instruction. The number of cells in each well was determined by Cell Titer Blue Assay (Promega). Compound profile was derived by calculating applicable EC50 (effective concentration inhibiting virus replication by 50%), EC90 (effective concentration inhibiting virus replication by 90%), IC50 (concentration decreasing cell viability by 50%) and SI50 (selective index: […]) values.

[7] = target: T5, R155K mutant of the HCV NS3/4A 1b protease enzyme (Hepatitis C virus genotype 1b, UniProt P26663, R1181K); test: HCV Protease FRET Assay (IC50_APP), R155K mutant; format: biochemical; conditions: apparent IC50, R155K mutant; read-out: IC50_APP, HCV R155K
T5 construct: 10× stocks of NS3/4A protease enzyme from Bioenza (Mountain View, Calif.); purchased Bioenza (Mountain View, Calif.)

[8] = target: T6, C159S mutant of the HCV NS3/4A 1b protease enzyme (Hepatitis C virus genotype 1b, UniProt P26663, C1185S); test: HCV Protease FRET Assay (IC50_APP), C159S mutant; format: biochemical; conditions: apparent IC50, C159S mutant
T6 construct: 10× stocks of NS3/4A protease enzyme from Bioenza (Mountain View, Calif.); purchased Bioenza (Mountain View, Calif.)
Description: HCV Protease FRET Assay for WT and Mutated NS3/4A 1b Enzymes (IC50—APP).
The following protocol was used to generate “apparent” IC50 (IC50—APP) values as depicted in Table 6, below. […] 5 μL of each enzyme were added to Corning (#3575) 384-well, black, microtiter plates (Corning, N.Y.) after spotting a 0.5 μL volume of 50% DMSO and serially diluted compounds prepared in 50% DMSO. Protease reactions were immediately started after enzyme addition with the addition of 45 μL of the FRET substrate and monitored for 60-90 minutes at λex485/λem520 in a Synergy^4 plate reader from BioTek (Winooski, Vt.). At the conclusion of each assay, progress curves from each well were examined for linear reaction kinetics and fit statistics (R^2, 95% confidence intervals, absolute sum of squares).
The compound numbers correspond to the compound numbers in Table 3. […] ;

[9] = read-out: IC50_APP, WT, apparent IC50, wild type NS3/4A 1b

| Compound | IC50 [1] | IC50 [2] | Covalent modification of HCV wild type by mass spectrometry [3] | IC90 ([4]; IC90) | IC50 ([4]; read-out: Replicon (IC50)) | IC50 [5] | EC50 [6] | IC50 [7] | IC50 [2, 9] | IC50 [8] |
| --- | --- | --- | --- | --- | --- | --- | --- | --- | --- | --- |
| C=C[C@@H]1C[C@]1(NC(=O)[C@@H]1C[C@@H](Oc2cc(-c3ccccc3)nc3cc(OC)ccc23)CN1C(=O)[C@@H](NC(=O)OC(C)(C)C)[C@@H](C)OC(=O)/C=C/C)C(=O)NS(=O)(=O)C1CC1 [Compound I-50, (E)-((2R,3S)-3-(tert-butoxycarbonylamino)-4-((2S,4R)-2-((1R,2S)-1-(cyclopropylsulfonylcarbamoyl)-2-vinylcyclopropylcarbamoyl)-4-(7-methoxy-2-phenylquinolin-4-yloxy)pyrrolidin-1-yl)-4-oxobutan-2-yl)but-2-enoate] | 100 to 1000 nM | < 10 nM | measurable covalent modification | < 10 nM | < 10 nM | 100 to 1000 nM | – | – | – | – |
| C=CC(=O)N[C@H](CC(C)C)C(=O)N1C[C@H](Oc2nccc3cc(OC)ccc23)C[C@H]1C(=O)N[C@]1(C(=O)NS(=O)(=O)C2CC2)C[C@H]1C=C [Compound I-105] | < 10 nM | – | – | – | – | 100 to 1000 nM | 10 to 100 nM | 10 to 100 nM | < 10 nM | 100 to 1000 nM |
| C=CC(=O)N[C@H](Cc1ccccc1)C(=O)N1C[C@H](Oc2nccc3cc(OC)ccc23)C[C@H]1C(=O)N[C@]1(C(=O)NS(=O)(=O)C2CC2)C[C@H]1C=C [Compound I-106] | < 10 nM | – | – | – | – | 100 to 1000 nM | 10 to 100 nM | 10 to 100 nM | < 10 nM | 100 to 1000 nM |
| C=CC1CC1(NC(=O)C1CC(n2nnc(-c3ccc(OC)cc3)n2)CN1C(=O)C(CCC(=O)C=C(C)C)NC(=O)OC(C)(C)C)C(=O)NS(=O)(=O)C1CC1 (centres unmarked) [Compound I-107] | – | – | – | – | – | 1000 to 10000 nM | 100 to 1000 nM | 1000 to 10000 nM | < 10 nM | 10 to 100 nM |
| C=CC(=O)NCC(NC(=O)OC(C)(C)C)C(=O)N1CC(n2nnc(-c3ccc(OC)cc3)n2)CC1C(=O)NC1(C(=O)NS(=O)(=O)C2CC2)CC1C=C (centres unmarked) [Compound I-108] | – | – | – | – | – | 1000 to 10000 nM | 100 to 1000 nM | 1000 to 10000 nM | < 10 nM | 100 to 1000 nM |
| C=CC(=O)NC[C@H](NC(=O)OC(C)(C)C)C(=O)N1C[C@H](Oc2nc3ccccc3nc2-c2cccs2)C[C@H]1C(=O)N[C@]1(C(=O)NS(=O)(=O)C2CC2)C[C@H]1C=C [Compound I-109] | – | – | – | – | – | 1000 to 10000 nM | 100 to 1000 nM | 100 to 1000 nM | < 10 nM | 100 to 1000 nM |
| C=C[C@@H]1C[C@]1(NC(=O)[C@@H]1C[C@@H](Oc2nc3ccccc3nc2-c2cccs2)CN1C(=O)[C@H](CCC(=O)C=C(C)C)NC(=O)OC(C)(C)C)C(=O)NS(=O)(=O)C1CC1 [Compound I-110] | – | – | – | – | – | 1000 to 10000 nM | 10 to 100 nM | 100 to 1000 nM | < 10 nM | 10 to 100 nM |
